# Test results from patent US9737520B2, “Aclidinium for use in improving the quality of sleep in respiratory patients” (Almirall, S.A., priority 2011, dated 2017).
# Key:
# [1] = system: patients with moderate-to-severe COPD; assay: Phase IIa randomised, double-blind, double-dummy, crossover trial; sleep difficulties score on patient diary card (Example 3); assay type: in vivo, human; settings: 15 days; for average score (+/-SEM), change in sleep difficulties score with respect to baseline: aclidinium 400 μg BID, tiotropium 18 μg QD, score 0-4
# Description: In a Phase IIa randomised, double-blind, double-dummy, crossover trial, patients with moderate-to-severe COPD received inhaled aclidinium 400 μg BID, tiotropium 18 μg QD and placebo for 15 days, with a 9-15 day washout between treatment periods.
# The incidence of sleep difficulties was recorded daily on a patient diary card. As in Example 1, the scores ranged from 0 for none to 1-4 for increasing severity of the sleep difficulties. The change in the score produced by each treatment with respect to the baseline was then measured.
# [2] = to two inactive metabolites; cited from earlier work
# respiratory patients = settings: administration in the evening versus only in the morning; cited from earlier work
Structure (SMILES),"average score (+/-SEM), change in sleep difficulties score with respect to baseline [1]",hydrolysis in human plasma [2],"statistical difference of the sleep difficulties score with placebo ([1]; aclidinium 400 μg BID (p<0.05), tiotropium 18 μg QD (p>0.05))",bronchodilation during the night (respiratory patients)
"O=C(O[C@H]1C[N+]2(CCCOc3ccccc3)CCC1CC2)C(O)(c1cccs1)c1cccs1 [aclidinium, 3(R)-(2-hydroxy-2,2-dithien-2-ylacetoxy)-1-(3-phenoxypropyl)-1-azoniabicyclo[2.2.2]octane]",−0.123 (0.089),rapidly hydrolysed,,
C[N+]1(C)[C@@H]2C[C@@H](OC(=O)C(O)(c3cccs3)c3cccs3)C[C@H]1[C@@H]1O[C@@H]12 [tiotropium],−0.011 (0.091),,no statistically significant difference,does not produce more bronchodilation during the night
